Molecular target: T1, human recombinant full-length fatty acid synthase (FASN) (Homo sapiens, UniProt P49327)
T1 construct: 40 nM human recombinant full-length fatty acid synthase (produced in-house in SF9 cells); made in house; host or cells: SF9 insect cells
Assay: Biochemical activity testing of human fatty acid synthase FASN (NADPH fluorescence intensity enzyme assay)
Details: for IC50: human recombinant FASN, enzyme assay
Source text: Biochemical Activity Testing of Human Fatty Acid Synthase FASN
Fatty acid synthase FASN is a multifunctional enzyme with seven catalytic activities thereby synthesising long chain fatty acids especially palmitoyl-CoA in the presence of co-factor NADPH starting from the substrates acetyl-CoA and malonyl-CoA. The reductive synthesis is realized by the oxidation of NADPH to NADP. Since NADPH has a high fluorescence intensity quantum yield compared to NADP with excitation at 340 nm and emission at 460 nm, the reaction can be monitored via the decrease in fluorescence intensity. The biochemical FASN activity testing was performed as 384 well two-time-point kinetic fluorescence intensity assay format in Greiner low volume medium binding 384-well black microtiter plates in a total assay volume of 8 μl and was used for high throughput screen. In each well 3 μl 40 nM human recombinant full-length fatty acid synthase (produced in-house in SF9 cells) were dispensed in the following assay buffer: 50 mM potassium phosphate buffer pH 7.0, 0.005% (w/v) BSA, 2 mM Glutathione, 0.02% Tween-20. Then 2 μl of 200 μM NADPH in assay buffer were added, followed by the addition of the test compounds in 10 dilution concentrations starting with 30 μM (final concentration) to get a final DMSO content of 1% (v/v). The mixture was incubated for at least 15 min at room temperature. After the pre-incubation the enzymatic reaction was started by the addition of 2 μl substrate solution (80 μM acetyl-CoA, 240 μM malonyl-CoA). A first fluorescence intensity measurement (time point one) was performed with an Envision multimode reader (Perkin Elmer LAS Germany GmbH) at excitation wavelength 340 nm (lamp mode) and emission wavelength 460 nm. The reaction was incubated for 30 minutes at room temperature. After this the fluorescence intensity was measured again in the Envision using the same parameters as described above (second time point measurement). The data were analysed by subtracting the first time point measurement value from the second time point measurement value (after the enzymatic reaction). The differences of the emission signals were determined. These reflect directly the conversion rate of NADPH. The full value used was the inhibitor-free reaction. A pharmacological zero value was used like GSK837149A (Sigma-Aldrich) in a final concentration of 5-10 μM. The inhibitory values (IC50) were determined using either the program Symyx Assay Explorer® or Condosseo® from GeneData.

T1 sequence (P49327 whole entry): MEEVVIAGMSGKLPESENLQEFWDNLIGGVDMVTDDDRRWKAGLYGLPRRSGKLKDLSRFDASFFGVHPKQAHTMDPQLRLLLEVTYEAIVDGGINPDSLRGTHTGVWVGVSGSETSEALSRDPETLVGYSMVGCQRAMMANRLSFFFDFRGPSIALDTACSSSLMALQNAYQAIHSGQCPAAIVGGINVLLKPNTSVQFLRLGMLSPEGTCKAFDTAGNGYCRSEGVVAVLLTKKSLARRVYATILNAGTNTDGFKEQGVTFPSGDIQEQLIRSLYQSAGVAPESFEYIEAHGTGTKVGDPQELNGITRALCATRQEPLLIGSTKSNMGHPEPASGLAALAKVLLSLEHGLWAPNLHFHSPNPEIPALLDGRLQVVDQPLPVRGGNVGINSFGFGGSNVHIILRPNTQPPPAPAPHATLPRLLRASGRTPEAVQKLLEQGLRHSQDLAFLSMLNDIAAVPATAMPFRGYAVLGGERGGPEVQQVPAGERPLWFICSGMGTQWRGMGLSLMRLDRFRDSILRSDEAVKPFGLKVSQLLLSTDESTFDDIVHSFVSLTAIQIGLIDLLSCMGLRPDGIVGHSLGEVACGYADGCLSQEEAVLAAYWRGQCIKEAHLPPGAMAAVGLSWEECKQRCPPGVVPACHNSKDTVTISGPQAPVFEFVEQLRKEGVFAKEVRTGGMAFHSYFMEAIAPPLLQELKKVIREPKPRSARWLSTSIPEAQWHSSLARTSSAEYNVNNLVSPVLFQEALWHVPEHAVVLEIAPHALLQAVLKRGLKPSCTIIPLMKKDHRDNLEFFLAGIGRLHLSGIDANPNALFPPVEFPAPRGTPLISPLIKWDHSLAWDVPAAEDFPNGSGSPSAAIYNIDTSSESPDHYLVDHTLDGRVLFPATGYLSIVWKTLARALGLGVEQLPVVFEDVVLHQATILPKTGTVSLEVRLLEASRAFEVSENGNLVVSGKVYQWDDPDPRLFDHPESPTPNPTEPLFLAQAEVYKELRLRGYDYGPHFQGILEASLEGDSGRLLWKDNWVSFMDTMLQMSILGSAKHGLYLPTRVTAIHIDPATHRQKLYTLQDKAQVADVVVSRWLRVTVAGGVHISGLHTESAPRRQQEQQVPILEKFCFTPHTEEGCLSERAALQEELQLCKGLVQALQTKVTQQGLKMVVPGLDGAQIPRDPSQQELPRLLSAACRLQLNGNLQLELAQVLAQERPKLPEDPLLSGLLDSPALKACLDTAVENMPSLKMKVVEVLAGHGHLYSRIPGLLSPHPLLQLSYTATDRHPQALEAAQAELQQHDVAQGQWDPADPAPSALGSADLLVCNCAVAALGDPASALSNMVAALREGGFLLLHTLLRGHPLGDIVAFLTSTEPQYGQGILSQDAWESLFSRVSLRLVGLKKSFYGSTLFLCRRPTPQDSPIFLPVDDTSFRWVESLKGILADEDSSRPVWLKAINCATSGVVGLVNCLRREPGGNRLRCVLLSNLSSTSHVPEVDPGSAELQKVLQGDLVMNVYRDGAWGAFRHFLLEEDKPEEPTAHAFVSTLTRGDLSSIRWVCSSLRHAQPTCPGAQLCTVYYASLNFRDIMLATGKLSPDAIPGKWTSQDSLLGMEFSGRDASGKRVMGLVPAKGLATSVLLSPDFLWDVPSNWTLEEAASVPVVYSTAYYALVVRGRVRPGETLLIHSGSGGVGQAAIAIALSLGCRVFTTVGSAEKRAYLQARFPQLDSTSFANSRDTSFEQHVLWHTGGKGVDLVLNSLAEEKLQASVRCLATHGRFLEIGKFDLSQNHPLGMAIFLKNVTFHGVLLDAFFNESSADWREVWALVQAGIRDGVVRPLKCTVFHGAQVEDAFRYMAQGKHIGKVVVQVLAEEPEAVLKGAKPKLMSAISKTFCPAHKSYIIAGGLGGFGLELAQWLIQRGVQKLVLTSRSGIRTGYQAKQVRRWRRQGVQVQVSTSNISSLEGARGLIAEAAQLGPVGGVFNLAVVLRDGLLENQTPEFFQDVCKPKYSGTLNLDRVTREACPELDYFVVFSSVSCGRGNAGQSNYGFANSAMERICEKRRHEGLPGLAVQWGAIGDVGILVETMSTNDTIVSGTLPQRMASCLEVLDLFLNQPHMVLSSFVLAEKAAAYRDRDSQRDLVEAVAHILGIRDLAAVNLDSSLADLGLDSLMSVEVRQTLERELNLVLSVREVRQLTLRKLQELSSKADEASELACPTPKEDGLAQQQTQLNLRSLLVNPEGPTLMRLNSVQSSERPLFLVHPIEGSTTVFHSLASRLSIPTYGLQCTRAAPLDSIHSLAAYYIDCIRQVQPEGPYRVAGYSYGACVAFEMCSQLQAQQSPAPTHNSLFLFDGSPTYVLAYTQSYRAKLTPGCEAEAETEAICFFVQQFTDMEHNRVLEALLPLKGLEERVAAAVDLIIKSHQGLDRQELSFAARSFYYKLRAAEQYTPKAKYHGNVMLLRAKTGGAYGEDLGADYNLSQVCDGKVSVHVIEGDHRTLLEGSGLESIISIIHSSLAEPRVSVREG

Row | IC50 [nM] | Inhibition of FASN (enzyme assay) (at 3 μM) | SMILES
1 | < 300 | – | CCNC(=O)[C@H]1CC[C@@H](n2nncc2-c2ccc(-c3ccc(Cl)cc3)cc2)C1 [Compound A14, (1S,3R)-3-[5-(4′-chloro-biphenyl-4-yl)-[1,2,3]triazol-1-yl]-cyclopentanecarboxylic acid ethylamide]
2 | < 300 | – | CCNC(=O)[C@H]1CC[C@@H](n2nncc2-c2ccc(-c3ccc(C#N)cc3)cc2)C1 [Compound A15, (1S,3R)-3-[5-(4′-cyano-biphenyl-4-yl)-[1,2,3]triazol-1-yl]-cyclopentanecarboxylic acid ethylamide]
3 | < 300 | – | CCNC(=O)[C@H]1CC[C@@H](n2nncc2-c2ccc(-c3ccc4cc[nH]c4c3)cc2)C1 [Compound A16, (1S,3R)-3-{5-[4-(1H-indol-6-yl)-phenyl]-[1,2,3]triazol-1-yl}-cyclopentanecarboxylic acid ethylamide]
4 | < 300 | – | CCC(=O)N[C@H]1CC[C@@H](n2cncc2-c2ccc(-c3nc4ccccc4o3)cc2)C1 [Compound A19, N-{(1S,3R)-3-[5-(4-benzoxazol-2-yl-phenyl)-imidazol-1-yl]-cyclopentyl}-propionamide]
5 | < 300 | – | CCC(=O)N[C@H]1CC[C@@H](n2cncc2-c2ccc(-c3nc4ccccc4s3)cc2)C1 [Compound A20, N-{(1S,3R)-3-[5-(4-benzothiazol-2-yl-phenyl)-imidazol-1-yl]-cyclopentyl}-propionamide]
6 | < 300 | – | CCC(=O)N[C@H]1CC[C@@H](n2cncc2-c2ccc(-c3ccc(Cl)cc3)cc2)C1 [Compound A21, N-{(1S,3R)-3-[5-(4′-chloro-biphenyl-4-yl)-imidazol-1-yl]-cyclopentyl}-propionamide]
7 | < 300 | – | CCC(=O)N[C@H]1CC[C@@H](n2cncc2-c2ccc(-c3cccc4[nH]ncc34)cc2)C1 [Compound A22, N-((1S,3R)-3-{5-[4-(1H-indazol-4-yl)-phenyl]-imidazol-1-yl}-cyclopentyl)-propionamide]
8 | < 300 | – | CC(=O)N[C@H]1CC[C@@H](n2nncc2-c2ccc(-c3nc4ccccc4o3)cc2)C1 [Compound A24, N-{(1S,3R)-3-[5-(4-benzoxazol-2-yl-phenyl)-[1,2,3]triazol-1-yl]-cyclopentyl}-acetamide]
9 | < 300 | – | CCC(=O)N[C@H]1CC[C@@H](n2nncc2-c2ccc(-c3ccc(Cl)cc3)cc2)C1 [Compound A25, N-{(1S,3R)-3-[5-(4′-chloro-biphenyl-4-yl)-[1,2,3]triazol-1-yl]-cyclopentyl}-propionamide]
10 | < 300 | – | CCC(=O)N[C@H]1CC[C@@H](n2nncc2-c2ccc(-c3cccc4[nH]ncc34)cc2)C1 [Compound A26, N-((1S,3R)-3-{5-[4-(1H-indazol-4-yl)-phenyl]-[1,2,3]triazol-1-yl}-cyclopentyl)-propionamide]
11 | < 300 | – | CCC(=O)N[C@H]1CC[C@@H](n2nncc2-c2ccc(-c3ccc4[nH]ccc4c3)cc2)C1 [Compound A27, N-((1S,3R)-3-{5-[4-(1H-indol-5-yl)-phenyl]-[1,2,3]triazol-1-yl}-cyclopentyl)-propionamide]
12 | < 300 | – | CCC(=O)N[C@H]1CC[C@@H](n2nncc2-c2ccc(-c3nc4ccccc4s3)cc2)C1 [Compound A28, N-{(1S,3R)-3-[5-(4-benzothiazol-2-yl-phenyl)-[1,2,3]triazol-1-yl]-cyclopentyl}-propionamide]
13 | < 300 | – | CCNC(=O)[C@H]1CC[C@@H](n2cnnc2-c2ccc(-c3nc4ccccc4o3)cc2)C1 [Compound A29, (1S,3R)-3-[3-(4-benzoxazol-2-yl-phenyl)-[1,2,4]triazol-4-yl]-cyclopentanecarboxylic acid ethylamide]
14 | < 300 | – | CCNC(=O)[C@H]1CC[C@@H](n2cnnc2-c2ccc(-c3ccc4cc[nH]c4c3)cc2)C1 [Compound A30, (1S,3R)-3-{3-[4-(1H-indol-6-yl)-phenyl]-[1,2,4]triazol-4-yl}-cyclopentanecarboxylic acid ethylamide]
15 | < 300 | – | CCNC(=O)[C@H]1CC[C@@H](n2cnnc2-c2ccc(-c3ccc(Cl)cc3)cc2)C1 [Compound A31, (1S,3R)-3-[3-(4′-chloro-biphenyl-4-yl)[1,2,4]triazol-4-yl]-cyclopentanecarboxylic acid ethylamide]
16 | < 300 | – | CCNC(=O)[C@H]1CC[C@@H](n2cnnc2-c2ccc(-c3ccc(C#N)cc3)cc2)C1 [Compound A32, (1S,3R)-3-[3-(4′-cyano-biphenyl-4-yl)-[1,2,4]triazol-4-yl]-cyclopentanecarboxylic acid ethylamide]

Second part, the compound before the results:

Row | SMILES | IC50 [nM] | Inhibition of FASN (enzyme assay) (at 3 μM)
17 | CCNC(=O)[C@H]1CC[C@@H](n2cncc2-c2ccc(-c3nc4ccccc4o3)cc2)C1 [Compound A1, (1S,3R)-3-[5-(4-benzooxazol-2-yl-phenyl)-imidazol-1-yl]-cyclopentanecarboxylic acid ethylamide] | < 300 | –
18 | CCNC(=O)[C@H]1CC[C@@H](n2cncc2-c2ccc(-c3ccccc3)cc2)C1 [Compound A2, (1S,3R)-3-(5-biphenyl-4-yl-imidazol-1-yl)-cyclopentanecarboxylic acid ethylamide] | < 300 | –
19 | CCNC(=O)[C@H]1CC[C@@H](n2cncc2-c2ccc(-c3ccc(Cl)cc3)cc2)C1 [Compound A3, (1S,3R)-3-[5-(4′-Chloro-biphenyl-4-yl)-imidazol-1-yl]-cyclopentanecarboxylic acid ethylamide] | < 300 | –
20 | CC1(NC(=O)[C@H]2CC[C@@H](n3cncc3-c3ccc(-c4nc5ccccc5o4)cc3)C2)CC1 [Compound A4, (1S,3R)-3-[5-(4-benzoxazol-2-yl-phenyl)-imidazol-1-yl]-cyclopentanecarboxylic acid (1-methyl-cyclopropyl)-amide] | < 300 | –
21 | CC1(NC(=O)[C@H]2CC[C@@H](n3cncc3-c3ccc(-c4cnc5[nH]ccc5c4)cc3)C2)CC1 [Compound A5, (1S,3R)-3-{5-[4-(1H-pyrrolo[2,3-b]pyridin-5-yl)-phenyl]-imidazol-1-yl}-cyclopentanecarboxylic acid (1-methyl-cyclopropyl)-amide] | – | Inhibition: −44%
22 | CC1(NC(=O)[C@H]2CC[C@@H](n3cncc3-c3ccc(-c4ccc5ncsc5c4)cc3)C2)CC1 [Compound A6, (1S,3R)-3-[5-(4-benzothiazol-6-yl-phenyl)-imidazol-1-yl]-cyclopentanecarboxylic acid (1-methyl-cyclopropyl)-amide amide] | < 300 | –
23 | CC1(NC(=O)[C@H]2CC[C@@H](n3cncc3-c3ccc(-c4ccc5cc[nH]c5c4)cc3)C2)CC1 [Compound A7, (1S,3R)-3-{5-[4-(1H-indol-6-yl)-phenyl]-imidazol-1-yl}-cyclopentanecarboxylic acid (1-methyl-cyclopropyl)-amide] | < 300 | –
24 | CC1(NC(=O)[C@H]2CC[C@@H](n3cncc3-c3ccc(-c4cc5cc(F)ccc5[nH]4)cc3)C2)CC1 [Compound A8, (1S,3R)-3-{5-[4-(5-fluoro-1H-indol-2-yl)-phenyl]-imidazol-1-yl}-cyclopentanecarboxylic acid (1-methyl-cyclopropyl)-amide] | 300 to 3000 | –
25 | CC1(NC(=O)[C@H]2CC[C@@H](n3cncc3-c3ccc(-c4ccc5[nH]nnc5c4)cc3)C2)CC1 [Compound A9, (1S,3R)-3-{5-[4-(1H-benzotriazol-5-yl)-phenyl]-imidazol-1-yl}-cyclopentanecarboxylic acid (1-methyl-cyclopropyl)-amide] | < 300 | –
26 | CC1(NC(=O)[C@H]2CC[C@@H](n3cncc3-c3ccc(-c4ccc5[nH]ccc5c4)cc3)C2)CC1 [Compound A10, (1S,3R)-3-{5-[4-(1H-indol-5-yl)-phenyl]-imidazol-1-yl}-cyclopentanecarboxylic acid (1-methyl-cyclopropyl)-amide] | < 300 | –
27 | CC1(NC(=O)[C@H]2CC[C@@H](n3cncc3-c3ccc(-c4cccc5[nH]ncc45)cc3)C2)CC1 [Compound A11, (1S,3R)-3-{5-[4-(1H-indazol-4-yl)-phenyl]-imidazol-1-yl}-cyclopentanecarboxylic acid (1-methyl-cyclopropyl)-amide] | < 300 | –
28 | CC1(NC(=O)[C@H]2CC[C@@H](n3cncc3-c3ccc(-c4ccc(C#N)cc4)cc3)C2)CC1 [Compound A12, (1S,3R)-3-[5-(4′-cyano-biphenyl-4-yl)-imidazol-1-yl]-cyclopentanecarboxylic acid (1-methyl-cyclopropyl)-amide] | 300 to 3000 | –
29 | CCNC(=O)[C@H]1CC[C@@H](n2nncc2-c2ccc(-c3nc4ccccc4o3)cc2)C1 [Compound A13, (1S,3R)-3-[5-(4-benzoxazol-2-yl-phenyl)-[1,2,3]triazol-1-yl]-cyclopentanecarboxylic acid ethylamide] | < 300 | –

— patent US9718785B2, “1,3-Disubstituted cyclopentane derivatives” (MERCK PATENT GMBH, priority 2013, dated 2017)
